# Values of other authors, collected in patent US12161674B2, “CRISPR-CAS9 modified CD34+ human hematopoietic stem and progenitor cells and uses thereof” (Vertex Pharmaceuticals Incorporated, priority 2018, dated 2024).
# System: CD34^+ cells
# Conditions: plerixafor alone
compound,measurement,setting,value
c1cc(CN2CCCNCCNCCCNCC2)ccc1CN1CCCNCCNCCCNCC1 [plerixafor],subjects with non-severe pain crisis,despite RBC transfusions in the preceding 2 months,3 of 7
same,median collection of CD34^+ cells after a single apheresis,"subjects with severe SCD, range 5.1 to 20.0",10.4×10^6 CD34^+ cells/kg
